The results in this text go back to patent publication EP1884568A1, “METHOD FOR IDENTIFICATION OF COMPOUND HAVING ANTIDEPRESSANT EFFECT” (Daiichi Sankyo Company, Limited, priority 2005, dated 2006).

This assay deals with T1, ph01207 (Homo sapiens, UniProt O60241, DEL308-362).
T1 construct: containing an ORF that encodes 1518 amino acid residues; expressed in transfected cells; host or cells: CHO-K1 (clone ph01207 #3F8-17)
The experiment in a line: Inhibition of the CCK-8S response (intracellular Ca2+), ph01207 #3F8-17 cell line. The conditions noted are these: for response of ph01207 #3F8-17 cell line to the ligand (increase in intracellular Ca^2+ by CCK-8S): compound 10 µg/mL added 35 sec before 10 nM CCK-8S, buffer as control. Type of assay: cell-based. As to the method:
Identification of a compound that inhibits a response of ph01207 gene product to a ligand was carried out with a system for measuring a change in intracellular calcium concentration using ph01207 expressing cell line.
ph01207 expressing cell line was constructed as follows. […] Detection of the expression of introduced genes in cells was carried out by FCM analysis using anti-ph01207 antibody
As a result, a plurality of cell lines that stably expressed ph01207 was obtained. Identification of a compound was carried out using ph01207 #3F8-17 cell line that was one of clones among them.
As a ligand, CCK-8S (Peptide Institute) was used. 0.52 mg of CCK-8S (SEQ ID NO: 14) was dissolved in 4.5 mL of 1% NaHCO3 (Wako) to prepare a solution of 0.1 mM concentration. As a test compound, SoftFocus GPCR Target-Directed Library that is a compound library (BioFocus) was used. A 2 mg/mL DMSO solution of each compound was diluted 25-fold with PBS to adjust the concentration to 80 µg/mL for use.
Specifically, identification of a compound was carried out as follows. ph01207 #3F8-17 cell line was seeded in 96-well plates with a black wall surface and transparent bottom) at 3 × 10^4 cells /100 µL medium/well, and cultured at 37°C in the presence of 5% CO2. DMEM/F12 (supplied by Gibco) containing 10% fetal calf serum (supplied by Moregate) was used as the medium. On the next day, 20 µL of 6 × loading buffer was added to each well to allow for a reaction at 37°C for 1 h so as to allow cells to incorporate fluorescent dye contained in the loading buffer. The 6 × loading buffer was prepared by dissolving component A of the FLIPR Calcium 3 Assay Kit (Molecular Devices Corp.) with component B followed by adding probenecid (Sigma) to have a final concentration of 15 mM. After the reaction, CCK-8S (Peptide Institute) and a compound were added to measure a change in the fluorescence intensity time-dependently for each well for 80 sec. […] A time-dependent measurement of the change in the fluorescence intensity was carried out using FLEXstation (Molecular Devices Corp.).

T1 sequence (O60241 with tags, fused parts or gaps isoform O60241-3 DEL296-350): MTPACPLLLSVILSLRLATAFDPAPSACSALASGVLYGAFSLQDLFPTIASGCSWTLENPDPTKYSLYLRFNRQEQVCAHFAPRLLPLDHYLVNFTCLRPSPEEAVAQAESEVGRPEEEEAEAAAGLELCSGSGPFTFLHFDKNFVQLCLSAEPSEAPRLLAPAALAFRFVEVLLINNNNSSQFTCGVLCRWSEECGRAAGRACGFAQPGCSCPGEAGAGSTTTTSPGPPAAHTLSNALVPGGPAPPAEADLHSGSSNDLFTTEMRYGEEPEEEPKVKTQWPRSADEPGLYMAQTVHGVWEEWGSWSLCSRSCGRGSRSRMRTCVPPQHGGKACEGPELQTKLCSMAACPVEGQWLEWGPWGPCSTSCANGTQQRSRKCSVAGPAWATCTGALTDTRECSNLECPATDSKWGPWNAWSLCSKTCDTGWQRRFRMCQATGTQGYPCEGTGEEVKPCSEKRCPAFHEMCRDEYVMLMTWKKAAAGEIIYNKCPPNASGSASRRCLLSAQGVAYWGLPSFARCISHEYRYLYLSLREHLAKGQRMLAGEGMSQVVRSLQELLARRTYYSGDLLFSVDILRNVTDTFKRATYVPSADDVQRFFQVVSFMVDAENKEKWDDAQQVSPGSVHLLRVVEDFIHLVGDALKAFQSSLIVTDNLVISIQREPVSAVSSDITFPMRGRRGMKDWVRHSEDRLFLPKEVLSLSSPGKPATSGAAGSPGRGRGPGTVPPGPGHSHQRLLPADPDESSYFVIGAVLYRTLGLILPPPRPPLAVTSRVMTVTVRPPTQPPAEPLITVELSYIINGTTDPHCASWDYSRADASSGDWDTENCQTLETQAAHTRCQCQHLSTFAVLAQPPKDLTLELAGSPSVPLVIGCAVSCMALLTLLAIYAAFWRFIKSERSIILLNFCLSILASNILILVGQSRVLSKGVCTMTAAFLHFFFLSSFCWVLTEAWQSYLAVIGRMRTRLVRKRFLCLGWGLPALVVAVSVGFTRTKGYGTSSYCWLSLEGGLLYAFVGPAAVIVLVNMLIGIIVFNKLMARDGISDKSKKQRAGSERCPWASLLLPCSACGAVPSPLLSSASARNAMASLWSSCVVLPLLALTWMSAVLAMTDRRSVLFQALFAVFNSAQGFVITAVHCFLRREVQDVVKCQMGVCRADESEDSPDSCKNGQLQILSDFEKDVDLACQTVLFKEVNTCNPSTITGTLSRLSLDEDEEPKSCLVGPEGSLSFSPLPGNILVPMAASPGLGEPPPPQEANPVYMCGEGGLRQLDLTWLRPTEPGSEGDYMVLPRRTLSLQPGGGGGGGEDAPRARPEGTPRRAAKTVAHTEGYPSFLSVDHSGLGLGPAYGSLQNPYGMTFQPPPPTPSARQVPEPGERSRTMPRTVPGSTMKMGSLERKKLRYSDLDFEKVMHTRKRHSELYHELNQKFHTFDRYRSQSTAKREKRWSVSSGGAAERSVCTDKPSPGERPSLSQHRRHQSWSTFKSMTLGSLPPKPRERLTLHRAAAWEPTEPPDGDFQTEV

Turning to `O=C(Nc1cccc(C(F)(F)F)c1)N1CCC2(C1)NCCc1c2[nH]c2ccccc12` (stereo not drawn) [compound A], the “change in fluorescence intensity on addition of the compound alone” value (ph01207 #3F8-17 cell line, compound 10 µg/mL added at 15 sec, before CCK-8S) is “No change”.
On to `O=C(Nc1ccccc1)N1CCC2(CC1)NCCc1c2[nH]c2ccccc12` [compound B], for which the “response of ph01207 #3F8-17 cell line to the ligand (increase in intracellular Ca^2+ by CCK-8S)” value is “inhibited”.
In the case of `O=C(c1cnc2ccccc2c1)N1CCC2(CC1)OCc1ccccc1O2` [compound C], the “response of ph01207 #3F8-17 cell line to the ligand (increase in intracellular Ca^2+ by CCK-8S)” value is on record as “inhibited”.
